Columns and labels:
Type in all cases: functional
[1] = test system: Mus musculus; experiment: Percentage glucose normalization relative to the ciglitazone effect at 50 mg/kg, which lower blood glucose levels to that of the lean littermates at the dose 0.5 mg/kg (in mice)
[2] = test system: Mus musculus; experiment: Percentage glucose normalization relative to the ciglitazone effect at 50 mg/kg, which lower blood glucose levels to that of the lean littermates at the dose 1 mg/kg (in mice)
[3] = test system: Mus musculus; experiment: Percentage glucose normalization relative to the ciglitazone effect at 50 mg/kg, which lower blood glucose levels to that of the lean littermates at the dose 0.2 mg/kg (in mice)
[4] = test system: Mus musculus; experiment: Percentage glucose normalization relative to the ciglitazone effect at 50 mg/kg, which lower blood glucose levels to that of the lean littermates at the dose 0.1 mg/kg (in mice)
[5] = test system: Mus musculus; experiment: Percentage glucose normalization relative to the ciglitazone effect at 50 mg/kg, which lower blood glucose levels to that of the lean littermates at the dose 5 mg/kg (in mice)
[6] = test system: Mus musculus; experiment: Percentage glucose normalization relative to the ciglitazone effect at 50 mg/kg, which lower blood glucose levels to that of the lean littermates at the dose 10 mg/kg (in mice)
[7] = test system: Mus musculus; experiment: Percentage glucose normalization relative to the ciglitazone effect at 50 mg/kg, which lower blood glucose levels to that of the lean littermates at the dose 25 mg/kg (in mice)
[8] = test system: Mus musculus; experiment: Percentage glucose normalization relative to the ciglitazone effect at 50 mg/kg, which lower blood glucose levels to that of the lean littermates at the dose 0.025 mg/kg (in mice)
[9] = test system: Mus musculus; experiment: Percentage glucose normalization relative to the ciglitazone effect at 50 mg/kg, which lower blood glucose levels to that of the lean littermates at the dose 0.05 mg/kg (in mice)

In the case of `Cc1oc(-c2ccccc2)nc1CCOc1ccc(CC2OC(=O)NC2=O)cc1` (stereo unspecified), the Glucose normalisation [1] is reported as 28% and the Glucose normalisation [2] is reported as 100%.

`Cc1oc(-c2ccc3ccccc3c2)nc1CCOc1ccc(CC2OC(=O)NC2=O)cc1` (stereo unspecified) gave a Glucose normalisation [3] of 46%, a Glucose normalisation [1] of 100% and a Glucose normalisation [2] of 98%.

For `Cc1cccc(-c2nc(Cc3cc4cc(CC5OC(=O)NC5=O)ccc4o3)c(C)o2)c1` (stereo unspecified), the Glucose normalisation [4] was 90% and the Glucose normalisation [1] was 100%.

Work on `Cc1oc(-c2ccccc2)nc1CCC(=O)c1ccc(CC2OC(=O)NC2=O)cc1` (stereo unspecified) yielded a Glucose normalisation [2] of 13% and a Glucose normalisation [5] of 75%.

`Cc1nc(-c2ccc3ccccc3c2)oc1CCOc1ccc(CC2OC(=O)NC2=O)cc1` (stereo unspecified) showed a Glucose normalisation [2] of 0% and a Glucose normalisation [5] of 10%.

`Cc1sc(-c2ccc3ccccc3c2)nc1CCOc1ccc(CC2OC(=O)NC2=O)cc1` (stereo unspecified) was tested, and the Glucose normalisation [1] was 0%.

Compound `O=C1NC(=O)C(Cc2ccc(OCCc3oc(-c4ccccc4)nc3Cc3ccccc3)cc2)O1` (stereo unspecified) has a Glucose normalisation [6] of 40%.

Compound `Cc1oc(-c2cc(C(F)(F)F)cc(C(F)(F)F)c2)nc1CCOc1ccc(CC2OC(=O)NC2=O)cc1` (stereo unspecified) has a Glucose normalisation [3] of 14% and a Glucose normalisation [1] of 95%.

Compound `Cc1oc(-c2ccc3ccccc3c2)nc1Cc1cc2cc(CC3OC(=O)NC3=O)ccc2o1` (stereo unspecified) has a Glucose normalisation [4] of 76%, a Glucose normalisation [3] of 70% and a Glucose normalisation [2] of 75%.

In the case of `Cc1oc(C2CCCCC2)nc1CCOc1ccc(CC2OC(=O)NC2=O)cc1` (stereo unspecified), the Glucose normalisation [2] is reported as 61%.

`Cc1oc(-c2ccccc2)nc1CCOc1ccc(C2OC(=O)NC2=O)cc1` (stereo unspecified) gave a Glucose normalisation [2] of 0%.

With `Cc1oc(-c2ccccc2)nc1COc1ccc(CC2OC(=O)NC2=O)cc1` (stereo unspecified) the Glucose normalisation [5] was 60%.

`O=C1NC(=O)C(Cc2ccc(Oc3ccc4oc(-c5ccccc5)nc4c3)cc2)O1` (stereo unspecified) showed a Glucose normalisation [7] of 0%.

`Cc1sc(-c2ccccc2)nc1Cc1cc2cc(CC3OC(=O)NC3=O)ccc2o1` (stereo unspecified) was tested, and the Glucose normalisation [1] was 0%.

Work on `Cc1ccc(-c2nc(Cc3cc4cc(CC5OC(=O)NC5=O)ccc4o3)c(C)o2)cc1` (stereo unspecified) yielded a Glucose normalisation [4] of 40% and a Glucose normalisation [3] of 100%.

In the case of `Cc1oc(-c2ccccc2)nc1Cc1cc2cc(CC3OC(=O)NC3=O)ccc2o1` (stereo unspecified), the Glucose normalisation [8] is reported as 65%, the Glucose normalisation [9] is reported as 77% and the Glucose normalisation [4] is reported as 92%. The Glucose normalisation [3] was 100% and the Glucose normalisation [5] was 100%.

`Cc1oc(-c2ccco2)nc1CCOc1ccc(CC2OC(=O)NC2=O)cc1` (stereo unspecified) was tested, and the Glucose normalisation [2] was 14% and the Glucose normalisation [5] was 24%.

In the case of `Cc1oc(C2CCCCC2)nc1Cc1cc2cc(CC3OC(=O)NC3=O)ccc2o1` (stereo unspecified), the Glucose normalisation [4] is reported as 64% and the Glucose normalisation [3] is reported as 91%.

For `COc1ccc(-c2nc(CCOc3ccc(CC4OC(=O)NC4=O)cc3)c(C)o2)cc1` (stereo unspecified), the Glucose normalisation [1] was 53% and the Glucose normalisation [2] was 80%.
